{
  "source": "PubChem BioAssay (NCI)",
  "assay_in_all_cases": "NCI anticancer screen, dose series, 384-well format",
  "key": {"[1]": {"tested_on": "MDA-MB-435 melanoma"}, "[2]": {"tested_on": "NCI-H460 NSCLC"}, "[3]": {"tested_on": "HS 578T breast"}, "[4]": {"tested_on": "RPMI-8226 leukemia"}, "[5]": {"tested_on": "MALME-3M melanoma"}, "[6]": {"tested_on": "SW-620 colon"}, "[7]": {"tested_on": "HCC-2998 colon"}, "[8]": {"tested_on": "IGROV1 ovarian"}, "[9]": {"tested_on": "BT-549 breast"}, "[10]": {"tested_on": "SK-MEL-2 melanoma"}, "[11]": {"tested_on": "U251 glioblastoma"}, "[12]": {"tested_on": "SK-OV-3 ovarian"}, "[13]": {"tested_on": "SF-268 CNS"}, "[14]": {"tested_on": "KM12 colon"}, "[15]": {"tested_on": "RXF 393 renal"}, "[16]": {"tested_on": "ACHN renal"}, "[17]": {"tested_on": "MDA-MB-468 breast"}, "[18]": {"tested_on": "MCF7 breast"}, "[19]": {"tested_on": "SF-295 CNS"}, "[20]": {"tested_on": "HCT-116 colon"}, "[21]": {"tested_on": "K-562 leukemia"}, "[22]": {"tested_on": "M14 melanoma"}, "[23]": {"tested_on": "A498 renal"}, "[24]": {"tested_on": "UO-31 renal"}, "[25]": {"tested_on": "SR leukemia"}, "[26]": {"tested_on": "NCI-H522 lung"}, "[27]": {"tested_on": "HCT-15 colon"}, "[28]": {"tested_on": "NCI-H23 lung"}, "[29]": {"tested_on": "SF-539 CNS"}, "[30]": {"tested_on": "NCI-H226 lung"}, "[31]": {"tested_on": "SK-MEL-5 melanoma"}, "[32]": {"tested_on": "PC-3 prostate"}, "[33]": {"tested_on": "CAKI-1 renal"}, "[34]": {"tested_on": "COLO 205 colon"}, "[35]": {"tested_on": "NCI-H322M lung"}, "[36]": {"tested_on": "A549 NSCLC"}, "[37]": {"tested_on": "CCRF-CEM leukemia"}, "[38]": {"tested_on": "MOLT-4 leukemia"}, "[39]": {"tested_on": "MDA-MB-231 breast"}, "[40]": {"tested_on": "OVCAR-3 ovarian"}, "[41]": {"tested_on": "HOP-62 NSCLC"}, "[42]": {"tested_on": "UACC-257 melanoma"}, "[43]": {"tested_on": "T-47D breast"}, "[44]": {"tested_on": "LOX IMVI melanoma"}, "[45]": {"tested_on": "NCI/ADR-RES ovarian"}, "[46]": {"tested_on": "OVCAR-4 ovarian"}, "[47]": {"tested_on": "SNB-19 CNS"}},
  "note": "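At the GI50, growth is halved. The concentration for full growth arrest is given as TGI.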",
  "data": [
    {"smiles": "O=C(Nc1cccc(C(F)(F)F)c1)Nc1cc(S(=O)(=O)NC2CC2)ccc1-c1ccsc1", "values": [
      {"measurement": "GI50", "setting": "[1]", "value": 6.53, "unit": "µM"},
      {"measurement": "TGI", "setting": "[1]", "value": 18.9, "unit": "µM"},
      {"measurement": "GI50", "setting": "[2]", "value": 2.4, "unit": "µM"},
      {"measurement": "TGI", "setting": "[2]", "value": 5.08, "unit": "µM"},
      {"measurement": "GI50", "setting": "[3]", "value": 2.87, "unit": "µM"},
      {"measurement": "TGI", "setting": "[3]", "value": 7.27, "unit": "µM"},
      {"measurement": "GI50", "setting": "[4]", "value": 1.88, "unit": "µM"},
      {"measurement": "TGI", "setting": "[4]", "value": 3.36, "unit": "µM"},
      {"measurement": "GI50", "setting": "[5]", "value": 6.91, "unit": "µM"},
      {"measurement": "TGI", "setting": "[5]", "value": 18.9, "unit": "µM"},
      {"measurement": "GI50", "setting": "[6]", "value": 3.87, "unit": "µM"},
      {"measurement": "TGI", "setting": "[6]", "value": 13.9, "unit": "µM"},
      {"measurement": "GI50", "setting": "[7]", "value": 5.7, "unit": "µM"},
      {"measurement": "TGI", "setting": "[7]", "value": 16.2, "unit": "µM"},
      {"measurement": "GI50", "setting": "[8]", "value": 8.86, "unit": "µM"},
      {"measurement": "TGI", "setting": "[8]", "value": 21.7, "unit": "µM"},
      {"measurement": "GI50", "setting": "[9]", "value": 7.6, "unit": "µM"},
      {"measurement": "TGI", "setting": "[9]", "value": 19.8, "unit": "µM"},
      {"measurement": "GI50", "setting": "[10]", "value": 2.72, "unit": "µM"},
      {"measurement": "TGI", "setting": "[10]", "value": 6.07, "unit": "µM"},
      {"measurement": "GI50", "setting": "[11]", "value": 3.43, "unit": "µM"},
      {"measurement": "TGI", "setting": "[11]", "value": 11.3, "unit": "µM"},
      {"measurement": "GI50", "setting": "[12]", "value": 7.67, "unit": "µM"},
      {"measurement": "TGI", "setting": "[12]", "value": 19.8, "unit": "µM"},
      {"measurement": "GI50", "setting": "[13]", "value": 4.84, "unit": "µM"},
      {"measurement": "TGI", "setting": "[13]", "value": 14.4, "unit": "µM"},
      {"measurement": "GI50", "setting": "[14]", "value": 4.02, "unit": "µM"},
      {"measurement": "TGI", "setting": "[14]", "value": 12.7, "unit": "µM"},
      {"measurement": "GI50", "setting": "[15]", "value": 3.28, "unit": "µM"},
      {"measurement": "TGI", "setting": "[15]", "value": 12.1, "unit": "µM"},
      {"measurement": "GI50", "setting": "[16]", "value": 3.25, "unit": "µM"},
      {"measurement": "TGI", "setting": "[16]", "value": 11.9, "unit": "µM"},
      {"measurement": "GI50", "setting": "[17]", "value": 1.96, "unit": "µM"},
      {"measurement": "TGI", "setting": "[17]", "value": 4.12, "unit": "µM"},
      {"measurement": "GI50", "setting": "[18]", "value": 3.68, "unit": "µM"},
      {"measurement": "TGI", "setting": "[18]", "value": 12.4, "unit": "µM"},
      {"measurement": "GI50", "setting": "[19]", "value": 2.96, "unit": "µM"},
      {"measurement": "TGI", "setting": "[19]", "value": 9.42, "unit": "µM"},
      {"measurement": "GI50", "setting": "[20]", "value": 3.17, "unit": "µM"},
      {"measurement": "TGI", "setting": "[20]", "value": 10.6, "unit": "µM"},
      {"measurement": "GI50", "setting": "[21]", "value": 3.45, "unit": "µM"},
      {"measurement": "TGI", "setting": "[21]", "value": 11.5, "unit": "µM"},
      {"measurement": "GI50", "setting": "[22]", "value": 5.88, "unit": "µM"},
      {"measurement": "TGI", "setting": "[22]", "value": 16.7, "unit": "µM"},
      {"measurement": "GI50", "setting": "[23]", "value": 2.86, "unit": "µM"},
      {"measurement": "TGI", "setting": "[23]", "value": 8.34, "unit": "µM"},
      {"measurement": "GI50", "setting": "[24]", "value": 4.17, "unit": "µM"},
      {"measurement": "TGI", "setting": "[24]", "value": 14.9, "unit": "µM"},
      {"measurement": "GI50", "setting": "[25]", "value": 0.863, "unit": "µM"},
      {"measurement": "TGI", "setting": "[25]", "value": 2.19, "unit": "µM"},
      {"measurement": "GI50", "setting": "[26]", "value": 2.69, "unit": "µM"},
      {"measurement": "TGI", "setting": "[26]", "value": 8.11, "unit": "µM"},
      {"measurement": "GI50", "setting": "[27]", "value": 3.49, "unit": "µM"},
      {"measurement": "TGI", "setting": "[27]", "value": 12.5, "unit": "µM"},
      {"measurement": "GI50", "setting": "[28]", "value": 2.83, "unit": "µM"},
      {"measurement": "TGI", "setting": "[28]", "value": 8.74, "unit": "µM"},
      {"measurement": "GI50", "setting": "[29]", "value": 5.91, "unit": "µM"},
      {"measurement": "TGI", "setting": "[29]", "value": 15, "unit": "µM"},
      {"measurement": "GI50", "setting": "[30]", "value": 4.75, "unit": "µM"},
      {"measurement": "TGI", "setting": "[30]", "value": 14.7, "unit": "µM"},
      {"measurement": "GI50", "setting": "[31]", "value": 2.32, "unit": "µM"},
      {"measurement": "TGI", "setting": "[31]", "value": 5.61, "unit": "µM"},
      {"measurement": "GI50", "setting": "[32]", "value": 3.92, "unit": "µM"},
      {"measurement": "TGI", "setting": "[32]", "value": 13.3, "unit": "µM"},
      {"measurement": "GI50", "setting": "[33]", "value": 3.59, "unit": "µM"},
      {"measurement": "TGI", "setting": "[33]", "value": 15.2, "unit": "µM"},
      {"measurement": "GI50", "setting": "[34]", "value": 5.12, "unit": "µM"},
      {"measurement": "TGI", "setting": "[34]", "value": 15.7, "unit": "µM"},
      {"measurement": "GI50", "setting": "[35]", "value": 5.66, "unit": "µM"},
      {"measurement": "TGI", "setting": "[35]", "value": 17.2, "unit": "µM"},
      {"measurement": "GI50", "setting": "[36]", "value": 4.02, "unit": "µM"},
      {"measurement": "TGI", "setting": "[36]", "value": 13.7, "unit": "µM"},
      {"measurement": "GI50", "setting": "[37]", "value": 2.4, "unit": "µM"},
      {"measurement": "TGI", "setting": "[37]", "value": 5.85, "unit": "µM"},
      {"measurement": "GI50", "setting": "[38]", "value": 1.78, "unit": "µM"},
      {"measurement": "TGI", "setting": "[38]", "value": 3.35, "unit": "µM"},
      {"measurement": "GI50", "setting": "[39]", "value": 10.6, "unit": "µM"},
      {"measurement": "TGI", "setting": "[39]", "value": 23, "unit": "µM"},
      {"measurement": "GI50", "setting": "[40]", "value": 2.42, "unit": "µM"},
      {"measurement": "TGI", "setting": "[40]", "value": 5.79, "unit": "µM"},
      {"measurement": "GI50", "setting": "[41]", "value": 3.98, "unit": "µM"},
      {"measurement": "TGI", "setting": "[41]", "value": 13.4, "unit": "µM"},
      {"measurement": "GI50", "setting": "[42]", "value": 2.89, "unit": "µM"},
      {"measurement": "TGI", "setting": "[42]", "value": 8.51, "unit": "µM"},
      {"measurement": "GI50", "setting": "[43]", "value": 2.62, "unit": "µM"},
      {"measurement": "TGI", "setting": "[43]", "value": 8.35, "unit": "µM"},
      {"measurement": "GI50", "setting": "[44]", "value": 4.08, "unit": "µM"},
      {"measurement": "TGI", "setting": "[44]", "value": 13.1, "unit": "µM"},
      {"measurement": "GI50", "setting": "[45]", "value": 6.69, "unit": "µM"},
      {"measurement": "TGI", "setting": "[45]", "value": 18.3, "unit": "µM"},
      {"measurement": "GI50", "setting": "[46]", "value": 5.19, "unit": "µM"},
      {"measurement": "TGI", "setting": "[46]", "value": 17, "unit": "µM"},
      {"measurement": "GI50", "setting": "[47]", "value": 4.51, "unit": "µM"},
      {"measurement": "TGI", "setting": "[47]", "value": 14.7, "unit": "µM"}
    ]}
  ]
}
